Experimental data taken from PMC3985299, “Single Ascending Dose Safety and Pharmacokinetics of CDRI-97/78: First-in-Human Study of a Novel Antimalarial Drug” (Malaria Research and Treatment, 2014).

System: healthy human volunteers
Assay: Single ascending dose study: biochemical parameters (liver function tests, serum electrolytes)
Format: in vivo
Set-up: Total serum bilirubin / Serum SGOT / Serum SGPT: unit not given here
Text: The study was approved by the Institute's Ethics Committee. The single ascending dose study and the pharmacokinetic study are registered with Central Trial Registry of India (CTRI/2012/07/002812; CTRI/2012/07/002832). Normal healthy male volunteers in the age group of 18–45 years were invited to join the trial. A detailed informed consent process of the volunteers was undertaken and screening of the volunteers was done after obtaining informed consent. They were recruited through contacts and hospital employees were excluded. The health status of the volunteers was determined by taking medical history, physical examination, routine haematology (haemoglobin, total lymphocyte count, differential count, and platelet count), clinical biochemistry (serum glutamic oxaloacetic transaminase (SGOT), serum glutamic pyruvic transaminase (SGPT), serum bilirubin, serum creatinine, blood urea, serum electrolytes, random blood sugar, total protein, and serum lipid profile), and urine and stool analysis (routine examination and microscopy). The volunteers were asked to report to the study site after 12 hours of fasting for the blood tests. Chest X-ray and 12-lead ECG were also taken. The participants were also screened for human immunodeficiency virus (HIV) and hepatitis B. The volunteers after giving informed consent were screened. The screening process was done latest within 1 month of admission for dosing. The volunteers who fulfilled the inclusion/exclusion criteria were admitted in the CPU the night before drug administration. Standardized dinner was served at 9 pm the night prior to dosing. On day 0, baseline blood sample for biochemical and haematological examination and stool and urine samples for routine and microscopy were taken. They received the study drug, according to the randomization sequence, under supervision. The empty packaging was returned to the container. The volunteers received drug as per randomization. Breakfast was given half an hour after drug administration. Subsequently, standardized lunch and dinner were served to the volunteers. The subjects were attached to a cardiac monitor and vital HR, BP, ECG, oxygen saturation, and RR were recorded. Corrected QT interval using Fridericia's formula was calculated. Adverse events were assessed at specific time points (0.5, 1, 2, 4, 6, 8, 12, and 24 hrs after medication). Unscheduled monitoring was undertaken whenever it felt necessary. The volunteers were discharged after 24 hrs and they had to return at 48 hrs and on the 7th day for follow-up. At the end of the 7th day, they were said to have completed the study. Routine haematological and biochemical investigations were performed at 0 hr, 24 hrs after drug administration, and on day 7. The study was monitored by a Data Safety Monitoring Board.

C=C(c1ccc(OC(C)(C)COC(=O)CCC(=O)O)cc1)C1COC2(OO1)C1CC3CC(C1)CC2C3 (centres unmarked) [CDRI 97/78, Mono[2methyl2[3(1spiro[tricycle[3.3.1.13,7]decane2,3′-[1,2,4]trioxan] 6′-ylethenyl)phenoxy]propyl] ester]
Serum Alkaline phosphatase (80 mg (n = 6), 24 hour): 102.5 ± 30.09
Serum SGOT (80 mg (n = 6), 24 hour): 23.48 ± 2.88
Serum SGPT (80 mg (n = 6), 24 hour): 26.2 ± 6.6
Total serum bilirubin (80 mg (n = 6), 24 hour): 0.73 ± 0.24
Serum Alkaline phosphatase (80 mg (n = 6), Baseline): 95.5 ± 26.65
Serum SGOT (80 mg (n = 6), Baseline): 22.15 ± 6.3
Serum SGPT (80 mg (n = 6), Baseline): 21.88 ± 10.0
Total serum bilirubin (80 mg (n = 6), Baseline): 0.82 ± 0.24
Serum Alkaline phosphatase (80 mg (n = 6), Day 7): 106.83 ± 37.12
Serum SGOT (80 mg (n = 6), Day 7): 27.7 ± 6.1
Serum SGPT (80 mg (n = 6), Day 7): 21.8 ± 3.7
Total serum bilirubin (80 mg (n = 6), Day 7): 0.64 ± 0.23
Serum Alkaline phosphatase (160 mg (n = 6), 24 hour): 212 ± 67
Serum SGOT (160 mg (n = 6), 24 hour): 33.98 ± 9.69
Serum SGPT (160 mg (n = 6), 24 hour): 39.43 ± 8.08
Total serum bilirubin (160 mg (n = 6), 24 hour): 0.55 ± 0.07
Serum Alkaline phosphatase (160 mg (n = 6), Baseline): 211.5 ± 68.65
Serum SGOT (160 mg (n = 6), Baseline): 34.18 ± 7.89
Serum SGPT (160 mg (n = 6), Baseline): 37.21 ± 4.16
Total serum bilirubin (160 mg (n = 6), Baseline): 0.76 ± 0.39
Serum Alkaline phosphatase (160 mg (n = 6), Day 7): 207.17 ± 61.03
Serum SGOT (160 mg (n = 6), Day 7): 38.33 ± 8.91
Serum SGPT (160 mg (n = 6), Day 7): 44.5 ± 11.64
Total serum bilirubin (160 mg (n = 6), Day 7): 0.6 ± 0.06
Serum Alkaline phosphatase (320 mg (n = 6), 24 hour): 222.5 ± 34.55
Serum SGOT (320 mg (n = 6), 24 hour): 34.17 ± 7.76
Serum SGPT (320 mg (n = 6), 24 hour): 37.33 ± 8.87
Total serum bilirubin (320 mg (n = 6), 24 hour): 0.8 ± 0.4
Serum Alkaline phosphatase (320 mg (n = 6), Baseline): 242 ± 45.24
Serum SGOT (320 mg (n = 6), Baseline): 32.83 ± 5.15
Serum SGPT (320 mg (n = 6), Baseline): 33.83 ± 9.09
Total serum bilirubin (320 mg (n = 6), Baseline): 0.73 ± 0.52
Serum Alkaline phosphatase (320 mg (n = 6), Day 7): 235.83 ± 32.49
Serum SGOT (320 mg (n = 6), Day 7): 35 ± 8.53
Serum SGPT (320 mg (n = 6), Day 7): 38.33 ± 13.84
Total serum bilirubin (320 mg (n = 6), Day 7): 0.87 ± 0.59
Serum Alkaline phosphatase (400 mg (n = 6), 24 hour): 251.67 ± 47.59
Serum SGOT (400 mg (n = 6), 24 hour): 31.5 ± 4.5
Serum SGPT (400 mg (n = 6), 24 hour): 35.17 ± 4.12
Total serum bilirubin (400 mg (n = 6), 24 hour): 0.53 ± 0.05
Serum Alkaline phosphatase (400 mg (n = 6), Baseline): 232.83 ± 42
Serum SGOT (400 mg (n = 6), Baseline): 26.67 ± 6.62
Serum SGPT (400 mg (n = 6), Baseline): 29 ± 5.44
Total serum bilirubin (400 mg (n = 6), Baseline): 0.52 ± 0.04
Serum Alkaline phosphatase (400 mg (n = 6), Day 7): 242.83 ± 34.82
Serum SGOT (400 mg (n = 6), Day 7): 32.33 ± 8.87
Serum SGPT (400 mg (n = 6), Day 7): 38 ± 12.95
Total serum bilirubin (400 mg (n = 6), Day 7): 0.55 ± 0.08
Serum Alkaline phosphatase (500 mg (n = 6), 24 hour): 313 ± 124.5
Serum SGOT (500 mg (n = 6), 24 hour): 31.5 ± 6.02
Serum SGPT (500 mg (n = 6), 24 hour): 34.83 ± 11.07
Total serum bilirubin (500 mg (n = 6), 24 hour): 0.52 ± 0.04
Serum Alkaline phosphatase (500 mg (n = 6), Baseline): 321.17 ± 151
Serum SGOT (500 mg (n = 6), Baseline): 31.33 ± 8.76
Serum SGPT (500 mg (n = 6), Baseline): 32.83 ± 11.5
Total serum bilirubin (500 mg (n = 6), Baseline): 0.52 ± 0.04
Serum Alkaline phosphatase (500 mg (n = 6), Day 7): 339.67 ± 184.25
Serum SGOT (500 mg (n = 6), Day 7): 34 ± 6.00
Serum SGPT (500 mg (n = 6), Day 7): 35.33 ± 10.56
Total serum bilirubin (500 mg (n = 6), Day 7): 0.53 ± 0.05
Serum Alkaline phosphatase (600 mg (n = 6), 24 hour): 275.83 ± 61.29
Serum SGOT (600 mg (n = 6), 24 hour): 30.33 ± 6.74
Serum SGPT (600 mg (n = 6), 24 hour): 30.5 ± 8.46
Total serum bilirubin (600 mg (n = 6), 24 hour): 0.8 ± 0.59
Serum Alkaline phosphatase (600 mg (n = 6), Baseline): 272.5 ± 66.71
Serum SGOT (600 mg (n = 6), Baseline): 31.17 ± 6.3
Serum SGPT (600 mg (n = 6), Baseline): 30 ± 7.16
Total serum bilirubin (600 mg (n = 6), Baseline): 0.8 ± 0.54
Serum Alkaline phosphatase (600 mg (n = 6), Day 7): 274 ± 75.17
Serum SGOT (600 mg (n = 6), Day 7): 31.33 ± 5.78
Serum SGPT (600 mg (n = 6), Day 7): 33.17 ± 10.53
Total serum bilirubin (600 mg (n = 6), Day 7): 0.82 ± 0.59
Serum Alkaline phosphatase (700 mg (n = 2), 24 hour): 254 ± 56.57
Serum SGOT (700 mg (n = 2), 24 hour): 40 ± 4.24
Serum SGPT (700 mg (n = 2), 24 hour): 46.5 ± 4.95
Total serum bilirubin (700 mg (n = 2), 24 hour): 0.6 ± 0.14
Serum Alkaline phosphatase (700 mg (n = 2), Baseline): 261.5 ± 50.2
Serum SGOT (700 mg (n = 2), Baseline): 35.5 ± 0.71
Serum SGPT (700 mg (n = 2), Baseline): 46 ± 5.66
Total serum bilirubin (700 mg (n = 2), Baseline): 0.6 ± 0.14
Serum Alkaline phosphatase (700 mg (n = 2), Day 7): 260.5 ± 44.55
Serum SGOT (700 mg (n = 2), Day 7): 34.5 ± 0.71
Serum SGPT (700 mg (n = 2), Day 7): 40 ± 11.31
Total serum bilirubin (700 mg (n = 2), Day 7): 0.55 ± 0.07
Serum sodium and serum potassium values vs normal physiological ranges (all time points, all groups): None of the volunteers had values outside the normal physiological ranges
Serum bilirubin, SGOT and SGPT, intergroup comparisons (any time point of measurement, 80-700 mg and placebo): no significant difference
